Experimental data published in ChEMBL document CHEMBL1133042, “Convergent synthesis of ribonuclease L-active 2',5'-oligoadenylate-peptide nucleic acids” (Bioorg Med Chem Lett, 2000).

Tests used:
[1] = target: T1, 2-5A-dependent ribonuclease (Homo sapiens) (UniProt Q05823); experiment: Relative ability of compound to activate Ribonuclease L to cleave poly(U)p[32P]Cp, compared to that of 2-5A standard (Crel=1)
T1 sequence (whole entry): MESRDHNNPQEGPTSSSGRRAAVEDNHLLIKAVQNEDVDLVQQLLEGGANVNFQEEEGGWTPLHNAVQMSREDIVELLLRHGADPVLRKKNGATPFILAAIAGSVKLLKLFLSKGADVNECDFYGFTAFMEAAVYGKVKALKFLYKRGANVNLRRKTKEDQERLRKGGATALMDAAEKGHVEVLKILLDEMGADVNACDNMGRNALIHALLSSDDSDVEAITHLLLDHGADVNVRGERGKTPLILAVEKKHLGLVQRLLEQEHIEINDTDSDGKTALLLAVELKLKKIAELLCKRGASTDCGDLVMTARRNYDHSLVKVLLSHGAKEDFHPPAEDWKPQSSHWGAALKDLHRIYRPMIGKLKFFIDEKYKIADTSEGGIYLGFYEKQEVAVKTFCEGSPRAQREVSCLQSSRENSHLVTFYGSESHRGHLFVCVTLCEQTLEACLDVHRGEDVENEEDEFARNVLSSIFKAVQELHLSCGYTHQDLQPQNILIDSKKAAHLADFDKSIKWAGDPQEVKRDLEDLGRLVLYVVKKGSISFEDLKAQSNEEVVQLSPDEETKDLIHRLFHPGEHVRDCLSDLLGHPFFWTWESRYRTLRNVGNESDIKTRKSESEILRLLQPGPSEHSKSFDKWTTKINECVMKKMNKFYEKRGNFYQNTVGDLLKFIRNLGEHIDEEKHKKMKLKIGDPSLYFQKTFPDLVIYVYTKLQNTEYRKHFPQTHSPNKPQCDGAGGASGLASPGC

[2] = target: T1, 2-5A-dependent ribonuclease (Homo sapiens); experiment: Relative binding affinity of compound to human recombinant Ribonuclease L, compared to that of 2-5A standard (Crel=1)
[3] = target: T1, 2-5A-dependent ribonuclease (Homo sapiens); experiment: Relative binding affinity of compound to human recombinant Ribonuclease L, compared to that of 2-5A standard (Crel=1); No binding detected
[4] = target: T1, 2-5A-dependent ribonuclease (Homo sapiens); experiment: Relative ability of compound to activate Ribonuclease L to cleave poly(U)p[32P]Cp, compared to that of 2-5A standard (Crel=1); No cleavage detected

Row | Compound | Crel [1] | Crel [2] | Crel [3] | Crel [4]
1 | Nc1ncnc2c1ncn2[C@@H]1O[C@H](COP(=O)(O)O[C@@H]2[C@H](O)[C@@H](COP(=O)(O)O[C@@H]3[C@H](O)[C@@H](COP(=O)(O)O)O[C@H]3n3cnc4c(N)ncnc43)O[C@H]2n2cnc3c(N)ncnc32)[C@@H](O)[C@H]1O | 1 | 1 |  | 
2 | Cc1cn(CC(=O)N(CCNC(=O)CN(CCNC(=O)CN(CCNC(=O)CN(CCNC(=O)COCCOCCNC(=O)COCCOCCN2CC(COP(=O)(O)O)OC(n3cnc4c(N)ncnc43)C2)C(=O)Cn2cc(C)c(=O)[nH]c2=O)C(=O)Cn2cc(C)c(=O)[nH]c2=O)C(=O)Cn2cc(C)c(=O)[nH]c2=O)CC(N)=O)c(=O)[nH]c1=O (stereo not given) |  |  | No binding | No cleavage
3 | Cc1cn(CC(=O)N(CCNC(=O)CN(CCNC(=O)CN(CCNC(=O)CN(CCNC(=O)COCCOCCNC(=O)COCCOCCN2C[C@@H](COP(=O)(O)O[C@@H]3[C@H](O)[C@@H](COP(=O)(O)O)O[C@H]3n3cnc4c(N)ncnc43)O[C@@H](n3cnc4c(N)ncnc43)C2)C(=O)Cn2cc(C)c(=O)[nH]c2=O)C(=O)Cn2cc(C)c(=O)[nH]c2=O)C(=O)Cn2cc(C)c(=O)[nH]c2=O)CC(N)=O)c(=O)[nH]c1=O |  |  | No binding | No cleavage
4 | CO[C@H]1[C@@H](OP(=O)(O)OC[C@H]2O[C@@H](n3cnc4c(N)ncnc43)[C@H](OP(=O)(O)OC[C@@H]3CN(CCOCCOCC(=O)NCCOCCOCC(=O)NCCN(CC(=O)NCCN(CC(=O)NCCN(CC(=O)NCCN(CC(N)=O)C(=O)Cn4cc(C)c(=O)[nH]c4=O)C(=O)Cn4cc(C)c(=O)[nH]c4=O)C(=O)Cn4cc(C)c(=O)[nH]c4=O)C(=O)Cn4cc(C)c(=O)[nH]c4=O)C[C@H](n4cnc5c(N)ncnc54)O3)[C@@H]2O)[C@H](n2cnc3c(N)ncnc32)O[C@@H]1COP(=O)(O)O | 47.6 | 0.7 |  | 
5 | CO[C@H]1[C@@H](OP(=O)(O)OC[C@H]2O[C@@H](n3cnc4c(N)ncnc43)[C@H](OP(=O)(O)OC[C@H]3O[C@@H](n4cnc5c(N)ncnc54)[C@H](OP(=O)(O)OC[C@H]4O[C@@H](n5cnc6c(N)ncnc65)[C@H](OP(=O)(O)O[C@@H]5CN(CCOCCOCC(=O)NCCOCCOCC(=O)NCCN(CC(=O)NCCN(CC(=O)NCCN(CC(=O)NCCN(CC(N)=O)C(=O)Cn6cc(C)c(=O)[nH]c6=O)C(=O)Cn6cc(C)c(=O)[nH]c6=O)C(=O)Cn6cc(C)c(=O)[nH]c6=O)C(=O)Cn6cc(C)c(=O)[nH]c6=O)C[C@H](n6cnc7c(N)ncnc76)O5)[C@@H]4O)[C@@H]3OC)[C@@H]2O)[C@H](n2cnc3c(N)ncnc32)O[C@@H]1COP(=O)(O)O | 14 | 1 |  | 
